From patent US12686846B2, “Plant sweet and yeast MSF transporter capable of transporting different sugars simultaneously” (THE BOARD OF TRUSTEES OF THE UNIVERSITY OF ILLINOIS, priority 2020, dated 2026)

Tests used:
Assay type in all cases: cell-based
[1] = molecular target: T1, Arabidopsis thaliana AtSWEET1 transporter, wild type, SEQ ID NO: 1 (Arabidopsis thaliana, UniProt Q8L9J7); assay: C14 labeled sugar uptake assay, SR8D8 expressing AtSWEET1; conditions: in words
T1 construct: whole-cell 14C sugar uptake
T1 sequence (Q8L9J7 1-247): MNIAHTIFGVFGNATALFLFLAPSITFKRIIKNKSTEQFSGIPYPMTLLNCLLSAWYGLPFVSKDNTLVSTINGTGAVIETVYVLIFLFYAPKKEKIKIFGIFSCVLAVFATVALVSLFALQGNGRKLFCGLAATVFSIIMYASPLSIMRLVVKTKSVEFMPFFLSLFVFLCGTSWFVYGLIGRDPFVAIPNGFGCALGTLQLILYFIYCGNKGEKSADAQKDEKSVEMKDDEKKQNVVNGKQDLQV
Protocol: (§1) FIG. 7A illustrates sugar uptake kinetics by SR8D8. FIG. 7B illustrates sugar uptake kinetics by SR8D8 expressing AtSWEET1. FIG. 7C illustrates sugar uptake kinetics by SR8D8 expressing ScGal2. FIG. 7D illustrates sugar uptake kinetics by SR8D8 expressing AtSWEET7. FIG. 7E illustrates sugar uptake kinetics by SR8D8 expressing LST1_205437. Initial xylose uptake (20 s) was measured at 30° C. over a concentration range of 1 to 500 mM xylose. FIG. 7F illustrates sugar uptake kinetics by SR8D8. FIG. 7G illustrates sugar uptake kinetics by SR8D8 expressing AtSWEET1. FIG. 7H illustrates sugar uptake kinetics by SR8D8 expressing ScGal2. FIG. 7I illustrates sugar uptake kinetics by SR8D8 expressing AtSWEET7. FIG. 7J illustrates sugar uptake kinetics by SR8D8 expressing LST1_205437. Initial glucose uptake (5 s) was measured at 30° C. over a concentration range of 0.2 to 100 mM glucose. […]
(§2) A xylose fermenting S. cerevisiae yeast (SR8) with HXT1-7Δ, GAL2Δ deletions was used for transporter screening and characterization (SR8D8). […] Biomass was calculated from the OD600 measured using a Biomate 5 UV-visible spectrophotometer (Fisher, NY, USA). All growth rates were measured using a Bioscreen C plate reader system (Growth Curves USA, Piscataway, NJ, USA). […]
(§3) Uptake was measured at sugar concentrations 0.2, 1, 5, 25, and 100 mM for glucose and 1, 5, 25, 66, 100, 200, and 500 mM for xylose. […]

[2] = molecular target: T2, Lipomyces starkeyi LST1_205437 transporter, wild type, SEQ ID NO: 4 (Lipomyces starkeyi, UniProt A0A1E3QE37); assay: C14 labeled sugar uptake assay (zero-trans influx), SR8D8 expressing LST1_205437; conditions: initial xylose uptake (20 s), 30° C., pH 6.5
T2 construct: whole-cell 14C sugar uptake
T2 sequence (A0A1E3QE37 1-603): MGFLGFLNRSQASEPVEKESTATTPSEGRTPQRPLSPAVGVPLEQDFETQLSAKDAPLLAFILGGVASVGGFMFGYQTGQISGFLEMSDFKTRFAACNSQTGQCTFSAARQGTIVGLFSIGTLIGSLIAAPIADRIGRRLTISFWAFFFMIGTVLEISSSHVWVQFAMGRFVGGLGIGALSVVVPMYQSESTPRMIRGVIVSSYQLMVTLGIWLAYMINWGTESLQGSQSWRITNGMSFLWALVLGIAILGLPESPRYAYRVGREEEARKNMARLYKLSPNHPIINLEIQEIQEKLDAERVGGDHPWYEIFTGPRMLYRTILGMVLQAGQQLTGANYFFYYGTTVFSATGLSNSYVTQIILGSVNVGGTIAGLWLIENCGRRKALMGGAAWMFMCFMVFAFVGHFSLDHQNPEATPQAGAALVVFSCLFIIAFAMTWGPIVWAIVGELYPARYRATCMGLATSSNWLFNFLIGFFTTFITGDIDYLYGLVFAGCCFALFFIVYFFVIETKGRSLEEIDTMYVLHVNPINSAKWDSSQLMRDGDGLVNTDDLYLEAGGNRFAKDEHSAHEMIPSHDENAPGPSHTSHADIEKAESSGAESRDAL
Protocol: (§4) FIG. 7A illustrates sugar uptake kinetics by SR8D8. FIG. 7B illustrates sugar uptake kinetics by SR8D8 expressing AtSWEET1. FIG. 7C illustrates sugar uptake kinetics by SR8D8 expressing ScGal2. FIG. 7D illustrates sugar uptake kinetics by SR8D8 expressing AtSWEET7. FIG. 7E illustrates sugar uptake kinetics by SR8D8 expressing LST1_205437. Initial xylose uptake (20 s) was measured at 30° C. over a concentration range of 1 to 500 mM xylose. FIG. 7F illustrates sugar uptake kinetics by SR8D8. FIG. 7G illustrates sugar uptake kinetics by SR8D8 expressing AtSWEET1. FIG. 7H illustrates sugar uptake kinetics by SR8D8 expressing ScGal2. FIG. 7I illustrates sugar uptake kinetics by SR8D8 expressing AtSWEET7. FIG. 7J illustrates sugar uptake kinetics by SR8D8 expressing LST1_205437. Initial glucose uptake (5 s) was measured at 30° C. over a concentration range of 0.2 to 100 mM glucose. Curve fitting for Michaelis-Menten kinetics was applied to data of three independent measurements at each concentration.
as §2, with “(SR8D8). SR8D8 was grown in YPE medium/plate (10 g/L yeast extract, 20 g/L peptone, and 5 g/L ethanol).” for “(SR8D8).”
(§5) SR8D8 containing the respective plasmid was grown on selective YPE medium to an OD600 of 1-1.5, harvested by centrifugation, and washed twice in ice-cold uptake buffer (100 mM potassium phosphate, pH 6.5). […] Radioactivity was analyzed in a Beckman-Coulter LS6500 multi-purpose liquid scintillation counter (Beckman-Coulter, CA, USA).
(§6) Uptake was measured at sugar concentrations 0.2, 1, 5, 25, and 100 mM for glucose and 1, 5, 25, 66, 100, 200, and 500 mM for xylose. Inhibition of xylose uptake by glucose was measured at 25, 66, and 100 mM xylose with additional 25 and 100 mM unlabeled glucose.

[3] = molecular target: T3, Saccharomyces cerevisiae ScGal2 (Gal2) transporter, SEQ ID NO:32 (Saccharomyces cerevisiae, UniProt P13181); assay: C14 labeled sugar uptake assay (zero-trans influx), SR8D8 expressing ScGal2; conditions: initial xylose uptake (20 s), 30° C., pH 6.5; cell wet weight; ± SEM
T3 construct: expressed in transfected cells; host or cells: S. cerevisiae SR8D8 (SR8 with HXT1-7 and GAL2 deleted), plasmid p42K-GPD1p-CYC1t
T3 sequence (P13181 1-574): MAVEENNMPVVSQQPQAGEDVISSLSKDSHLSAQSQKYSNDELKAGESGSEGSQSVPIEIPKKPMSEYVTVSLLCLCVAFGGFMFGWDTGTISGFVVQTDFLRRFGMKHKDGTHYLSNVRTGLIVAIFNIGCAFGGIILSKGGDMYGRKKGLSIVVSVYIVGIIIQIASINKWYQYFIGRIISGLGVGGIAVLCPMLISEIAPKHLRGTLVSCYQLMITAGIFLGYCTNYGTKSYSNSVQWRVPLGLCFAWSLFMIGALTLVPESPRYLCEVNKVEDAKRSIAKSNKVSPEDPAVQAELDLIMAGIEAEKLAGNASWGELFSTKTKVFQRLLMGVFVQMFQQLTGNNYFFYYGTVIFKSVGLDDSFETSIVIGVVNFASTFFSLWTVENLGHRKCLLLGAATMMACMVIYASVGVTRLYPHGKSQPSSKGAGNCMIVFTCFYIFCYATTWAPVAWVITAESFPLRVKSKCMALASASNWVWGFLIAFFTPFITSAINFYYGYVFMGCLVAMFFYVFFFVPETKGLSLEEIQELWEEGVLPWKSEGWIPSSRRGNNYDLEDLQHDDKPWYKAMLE
Protocol: as §4
as §2, with “(SR8D8). SR8D8 was grown in YPE medium/plate (10 g/L yeast extract, 20 g/L peptone, and 5 g/L ethanol).” for “(SR8D8).”
as §5, §6

[4] = molecular target: T4, Arabidopsis thaliana AtSWEET7 transporter, wild type (Table 2: SEQ ID NO: 3; FIG. 12: SEQ ID NO:2) (Arabidopsis thaliana, UniProt Q8LBF7); assay: C14 labeled sugar uptake assay (zero-trans influx), SR8D8 expressing AtSWEET7; conditions: initial xylose uptake (20 s), 30° C., pH 6.5; cell wet weight; ± SEM
T4 construct: expressed in transfected cells; host or cells: S. cerevisiae SR8D8 (SR8 with HXT1-7 and GAL2 deleted), plasmid p42K-GPD1p-CYC1t
T4 sequence (Q8LBF7 1-258): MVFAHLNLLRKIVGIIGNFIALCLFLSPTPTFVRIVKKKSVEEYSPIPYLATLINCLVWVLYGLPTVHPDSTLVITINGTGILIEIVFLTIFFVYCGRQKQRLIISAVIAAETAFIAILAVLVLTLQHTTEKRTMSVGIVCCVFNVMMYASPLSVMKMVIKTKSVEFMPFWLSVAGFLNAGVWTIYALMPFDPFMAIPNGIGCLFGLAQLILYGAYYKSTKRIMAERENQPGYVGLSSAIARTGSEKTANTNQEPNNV
Protocol: as §1, §2, §3

## OC1OC[C@@H](O)[C@H](O)[C@H]1O (stereo partly drawn) [Xylose, D-xylose]
[1]
  xylose transport kinetics: very poor xylose transport kinetics
[2]
  Vmax (xylose): 76.8 nmol/min/mg
[2]; cell wet weight, ± SEM
  Vmax (xylose): 76.8 ± 9.0 nmol/min/mg
[3]
  Vmax (xylose): 88.7 ± 10.0 nmol/min/mg
[4]
  Vmax (xylose): 100.9 ± 14.8 nmol/min/mg
